Reference: patent US9050344B2, “Therapeutic compounds” (Gilead Sciences, Inc., priority 2013, dated 2015)

Columns and labels:
HIV-IIIb = assay: Test A: Antiviral Assay in MT4 Cells; format: cell-based, HIV-1; conditions: Human immunodeficiency virus 1, IIIB, MT4, 120 h, read-out: % inhibition at 3 μM
Protocol: Test A: Antiviral Assay in MT4 Cells
For the antiviral assay, 40 μL of 1× test concentration of 3-fold serially diluted compound in culture medium with 10% FBS was added to each well of a 384-well plate (10 concentrations) in quadruplicate. MT-4 cells were next mixed with HIV-IIIb at an m.o.i of 0.003 for 1 hour, after which time 35 μL of virus/cell mixture (2000 cells) was immediately added to each well containing 40 μL of diluted compound. The plates were then incubated at 37° C. for 5 days. After 5 days of incubation, 25 μl of 2× concentrated CellTiter-Glo™ Reagent (catalog #G7571, Promega Biosciences, Inc., Madison, Wis.) was added to each well containing MT-4 cells. Cell lysis was carried out by incubating at room temperature for 10 min and then chemiluminescence was read.

[1] = Test B: Cytotoxicity Assay (protocol of Test A, uninfected cells); format: cell-based; conditions: human, uninfected MT-4 cells, CellTiter-Glo
Protocol: Test B: Cytotoxicity Assay Compound cytotoxicity and the corresponding CC50 values was determined using the same protocol as described in the antiviral assay (Test A) except that uninfected cells were used.

| SMILES | inhibition at 3 µM (HIV-IIIb) [%] | CC50 at 5 days [1] [µM] |
| --- | --- | --- |
| Cc1nc([C@H](Cc2cc(F)cc(F)c2)NC(=O)Cn2nc(C(F)(F)F)c3c2C(F)(F)[C@@H]2C[C@H]32)c(-c2cccc3c(NS(C)(=O)=O)nn(C)c23)cc1N [Compound 45, N—((S)-1-(5-amino-6-methyl-3-(1-methyl-3-(methylsulfonamido)-1H-indazol-7-yl)pyridin-2-yl)-2-(3,5-difluorophenyl)ethyl)-2-((3bS,4aR)-5,5-difluoro-3-(trifluoromethyl)-3b,4,4a,5-tetrahydro-1H-cyclopropa[3,4]cyclopenta[1,2-c]pyrazol-1-yl)acetamide] | 110 | 21.5 |
| Cn1nc(NS(C)(=O)=O)c2cccc(-c3cc(N)c(C#N)nc3[C@H](Cc3cc(F)cc(F)c3)NC(=O)Cn3nc(C(F)(F)F)c4c3C(F)(F)[C@@H]3C[C@H]43)c21 [Compound 46F, N—((S)-1-(5-amino-6-cyano-3-(1-methyl-3-(methylsulfonamido)-1H-indazol-7-yl)pyridin-2-yl)-2-(3,5-difluorophenyl)ethyl)-2-((3bS,4aR)-5,5-difluoro-3-(trifluoromethyl)-3b,4,4a,5-tetrahydro-1H-cyclopropa[3,4]cyclopenta[1,2-c]pyrazol-1-yl)acetamide] | 109 | 12.5 |
| Cc1nc([C@H](Cc2cc(F)cc(F)c2)NC(=O)Cn2nc(C(F)F)c3c2C(F)(F)[C@@H]2C[C@H]32)c(-c2ccc(Cl)c3c(NS(C)(=O)=O)nn(C)c23)cc1N [Compound 47C, N—((S)-1-(5-amino-3-(4-chloro-1-methyl-3-(methylsulfonamido)-1H-indazol-7-yl)-6-methylpyridin-2-yl)-2-(3,5-difluorophenyl)ethyl)-2-((3bS,4aR)-3-(difluoromethyl)-5,5-difluoro-3b,4,4a,5-tetrahydro-1H-cyclopropa[3,4]cyclopenta[1,2-c]pyrazol-1-yl)acetamide] | 107 | 18.1 |
| CC(=O)Nc1cc(-c2ccc(Cl)c3c(NS(C)(=O)=O)nn(C)c23)c([C@H](Cc2cc(F)cc(F)c2)NC(=O)Cn2nc(C(F)F)c3c2C(F)(F)[C@@H]2C[C@H]32)nc1C [Compound 48, N—((S)-1-(5-acetamido-3-(4-chloro-1-methyl-3-(methylsulfonamido)-1H-indazol-7-yl)-6-methylpyridin-2-yl)-2-(3,5-difluorophenyl)ethyl)-2-((3bS,4aR)-3-(difluoromethyl)-5,5-difluoro-3b,4,4a,5-tetrahydro-1H-cyclopropa[3,4]cyclopenta[1,2-c]pyrazol-1-yl)acetamide] | 93 | 20.7 |
| Cn1nc(NS(C)(=O)=O)c2c(Cl)ccc(-c3cc(N)cnc3[C@H](Cc3cc(F)cc(F)c3)NC(=O)Cn3nc(C(F)F)c4c3C(F)(F)[C@@H]3C[C@H]43)c21 [Compound 49C, N—((S)-1-(5-amino-3-(4-chloro-1-methyl-3-(methylsulfonamido)-1H-indazol-7-yl)pyridin-2-yl)-2-(3,5-difluorophenyl)ethyl)-2-((3bS,4aR)-3-(difluoromethyl)-5,5-difluoro-3b,4,4a,5-tetrahydro-1H-cyclopropa[3,4]cyclopenta[1,2-c]pyrazol-1-yl)acetamide] | 93 | 28.1 |
| CN(C)c1cnc([C@H](Cc2cc(F)cc(F)c2)NC(=O)Cn2nc(C(F)F)c3c2C(F)(F)[C@@H]2C[C@H]32)c(-c2ccc(Cl)c3c(NS(C)(=O)=O)nn(C)c23)c1 [Compound 50, N—((S)-1-(3-(4-chloro-1-methyl-3-(methylsulfonamido)-1H-indazol-7-yl)-5-(dimethylamino)pyridin-2-yl)-2-(3,5-difluorophenyl)ethyl)-2-((3bS,4aR)-3-(difluoromethyl)-5,5-difluoro-3b,4,4a,5-tetrahydro-1H-cyclopropa[3,4]cyclopenta[1,2-c]pyrazol-1-yl)acetamide] | 86 | 34.2 |
| CNc1cnc([C@H](Cc2cc(F)cc(F)c2)NC(=O)Cn2nc(C(F)F)c3c2C(F)(F)[C@@H]2C[C@H]32)c(-c2ccc(Cl)c3c(NS(C)(=O)=O)nn(C)c23)c1 [Compound 51, N—((S)-1-(3-(4-chloro-1-methyl-3-(methylsulfonamido)-1H-indazol-7-yl)-5-(methylamino)pyridin-2-yl)-2-(3,5-difluorophenyl)ethyl)-2-((3bS,4aR)-3-(difluoromethyl)-5,5-difluoro-3b,4,4a,5-tetrahydro-1H-cyclopropa[3,4]cyclopenta[1,2-c]pyrazol-1-yl)acetamide] | 79 | 16.6 |
| Cn1nc(NS(C)(=O)=O)c2c(Cl)ccc(-c3cc(N)cnc3[C@H](Cc3cc(F)cc(F)c3)NC(=O)Cn3nc(C(F)(F)F)c4c3C(F)(F)[C@@H]3C[C@H]43)c21 [Compound 52, N—((S)-1-(5-amino-3-(4-chloro-1-methyl-3-(methylsulfonamido)-1H-indazol-7-yl)pyridin-2-yl)-2-(3,5-difluorophenyl)ethyl)-2-((3bS,4aR)-5,5-difluoro-3-(trifluoromethyl)-3b,4,4a,5-tetrahydro-1H-cyclopropa[3,4]cyclopenta[1,2-c]pyrazol-1-yl)acetamide] | 104 | 21.5 |
| Cn1nc(NS(C)(=O)=O)c2c(Cl)ccc(-c3cc(N)c(Cl)nc3[C@H](Cc3cc(F)cc(F)c3)NC(=O)Cn3nc(C(F)F)c4c3C(F)(F)[C@@H]3C[C@H]43)c21 [Compound 53B, N—((S)-1-(5-amino-6-chloro-3-(4-chloro-1-methyl-3-(methylsulfonamido)-1H-indazol-7-yl)pyridin-2-yl)-2-(3,5-difluorophenyl)ethyl)-2-((3bS,4aR)-3-(difluoromethyl)-5,5-difluoro-3b,4,4a,5-tetrahydro-1H-cyclopropa[3,4]cyclopenta[1,2-c]pyrazol-1-yl)acetamide] | 91 | 15 |
| Cn1nc(NS(C)(=O)=O)c2c(Cl)ccc(-c3cc(N)c(Cl)nc3[C@H](Cc3cc(F)cc(F)c3)NC(=O)Cn3nc(C(F)(F)F)c4c3C(F)(F)[C@@H]3C[C@H]43)c21 [Compound 54, N—((S)-1-(5-amino-6-chloro-3-(4-chloro-1-methyl-3-(methylsulfonamido)-1H-indazol-7-yl)pyridin-2-yl)-2-(3,5-difluorophenyl)ethyl)-2-((3bS,4aR)-5,5-difluoro-3-(trifluoromethyl)-3b,4,4a,5-tetrahydro-1H-cyclopropa[3,4]cyclopenta[1,2-c]pyrazol-1-yl)acetamide] | 92 | 12.1 |
| CSc1cnc([C@H](Cc2cc(F)cc(F)c2)NC(=O)Cn2nc(C(F)F)c3c2C(F)(F)[C@@H]2C[C@H]32)c(-c2cccc3c(NS(C)(=O)=O)nn(C)c23)n1 [Compound 55G, 2-((3bS,4aR)-3-(difluoromethyl)-5,5-difluoro-3b,4,4a,5-tetrahydro-1H-cyclopropa[3,4]cyclopenta[1,2-c]pyrazol-1-yl)-N—((S)-2-(3,5-difluorophenyl)-1-(3-(1-methyl-3-(methylsulfonamido)-1H-indazol-7-yl)-5-(methylthio)pyrazin-2-yl)ethyl)acetamide] | 107 | 22.1 |
| Cn1nc(NS(C)(=O)=O)c2c(Cl)ccc(-c3ccc(NCCO)nc3[C@H](Cc3cc(F)cc(F)c3)NC(=O)Cn3nc(C(F)(F)F)c4c3C(F)(F)[C@@H]3C[C@H]43)c21 [Compound 56] | 95 | 24.3 |
| CN(CCO)c1ccc(-c2ccc(Cl)c3c(NS(C)(=O)=O)nn(C)c23)c([C@H](Cc2cc(F)cc(F)c2)NC(=O)Cn2nc(C(F)F)c3c2C(F)(F)[C@@H]2C[C@H]32)n1 [Compound 57G, N—((S)-1-(3-(4-chloro-1-methyl-3-(methylsulfonamido)-1H-indazol-7-yl)-6-((2-hydroxyethyl)(methyl)amino)pyridin-2-yl)-2-(3,5-difluorophenyl)ethyl)-2-((3bS,4aR)-3-(difluoromethyl)-5,5-difluoro-3b,4,4a,5-tetrahydro-1H-cyclopropa[3,4]cyclopenta[1,2-c]pyrazol-1-yl)acetamide] | 81 | 29.5 |
| CN(CCO)c1ccc(-c2ccc(Cl)c3c(NS(C)(=O)=O)nn(C)c23)c([C@H](Cc2cc(F)cc(F)c2)NC(=O)Cn2nc(C(F)(F)F)c3c2C(F)(F)[C@@H]2C[C@H]32)n1 [Compound 58, N—((S)-1-(3-(4-chloro-1-methyl-3-(methylsulfonamido)-1H-indazol-7-yl)-6-((2-hydroxyethyl)(methyl)amino)pyridin-2-yl)-2-(3,5-difluorophenyl)ethyl)-2-((3bS,4aR)-5,5-difluoro-3-(trifluoromethyl)-3b,4,4a,5-tetrahydro-1H-cyclopropa[3,4]cyclopenta[1,2-c]pyrazol-1-yl)acetamide] | 86 | 12.8 |
| Cn1nc(NS(C)(=O)=O)c2c(Cl)ccc(-c3nc(N)cnc3C(Cc3cc(F)cc(F)c3)NC(=O)Cn3nc(C(F)F)c4c3C(F)(F)[C@@H]3C[C@H]43)c21 (stereo partly drawn) [Compound 59D, N-(1-(5-amino-3-(4-chloro-1-methyl-3-(methylsulfonamido)-1H-indazol-7-yl)pyrazin-2-yl)-2-(3,5-difluorophenyl)ethyl)-2-((3bS,4aR)-3-(difluoromethyl)-5,5-difluoro-3b,4,4a,5-tetrahydro-1H-cyclopropa[3,4]cyclopenta[1,2-c]pyrazol-1-yl)acetamide] | 85 | > 46.8 |
